Test results taken from ChEMBL document CHEMBL3875185, “Structure-anticonvulsant activity studies in the group of (E)-N-cinnamoyl aminoalkanols derivatives monosubstituted in phenyl ring with 4-Cl, 4-CH3 or 2-CH3” (Bioorg Med Chem, 2017).
The source made the active and inactive calls. The rule behind the calls is not given here.

Legend:
[1] = biological target: T1, 5-hydroxytryptamine receptor 1A (Homo sapiens) (UniProt P08908); assay: Displacement of [3H]8-OH-DPAT from human recombinant 5HT1A receptor expressed in HEK293 cells at 100 uM measured after 60 mins by scintillation counting method relative to control; format: cell-based
T1 sequence (whole entry): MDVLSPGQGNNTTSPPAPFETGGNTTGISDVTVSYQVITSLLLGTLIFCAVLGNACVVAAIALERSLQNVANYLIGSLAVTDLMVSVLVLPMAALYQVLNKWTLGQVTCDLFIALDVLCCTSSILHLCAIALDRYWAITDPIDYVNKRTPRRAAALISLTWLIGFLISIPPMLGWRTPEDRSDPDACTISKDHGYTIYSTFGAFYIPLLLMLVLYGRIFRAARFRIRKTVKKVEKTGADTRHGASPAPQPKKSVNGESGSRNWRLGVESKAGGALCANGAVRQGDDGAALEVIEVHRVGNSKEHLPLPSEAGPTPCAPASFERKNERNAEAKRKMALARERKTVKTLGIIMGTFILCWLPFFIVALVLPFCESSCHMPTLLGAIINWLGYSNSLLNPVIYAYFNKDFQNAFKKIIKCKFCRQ

[2] = test system: Rattus norvegicus; assay: Anticonvulsant activity in ip dosed maximal electroshock induced seizure Sprague-Dawley rat model assessed as suppression in hindlimb tonic extension; format: functional
[3] = biological target: Beta-2 adrenergic receptor (Homo sapiens) (UniProt P07550); assay: Displacement of [3H]CGP 12177 from human recombinant beta2 adrenergic receptor expressed in CHO cells at 100 uM measured after 120 mins by scintillation counting method relative to control; format: cell-based
[4] = biological target: T2, Neuromedin-K receptor (Homo sapiens) (UniProt P29371); assay: Displacement of [3H]SR 142801 from human recombinant NK3 receptor expressed in CHO cells at 100 uM measured after 120 mins by scintillation counting method relative to control; format: cell-based
T2 sequence (whole entry): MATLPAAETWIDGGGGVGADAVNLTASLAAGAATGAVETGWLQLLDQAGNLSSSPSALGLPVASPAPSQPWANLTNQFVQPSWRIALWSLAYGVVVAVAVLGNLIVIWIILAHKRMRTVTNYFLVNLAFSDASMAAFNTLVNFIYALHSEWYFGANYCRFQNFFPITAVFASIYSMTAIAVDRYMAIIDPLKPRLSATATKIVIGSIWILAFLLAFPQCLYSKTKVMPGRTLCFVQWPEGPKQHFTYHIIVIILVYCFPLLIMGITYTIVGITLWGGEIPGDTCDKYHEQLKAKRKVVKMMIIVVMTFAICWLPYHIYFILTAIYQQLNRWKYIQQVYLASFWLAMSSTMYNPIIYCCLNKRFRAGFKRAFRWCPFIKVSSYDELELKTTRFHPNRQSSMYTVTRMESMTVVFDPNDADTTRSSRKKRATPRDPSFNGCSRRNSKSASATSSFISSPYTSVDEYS

[5] = test system: Mus musculus; assay: Anticonvulsant activity in ip dosed 6-Hz induced seizure mouse model assessed as restoration of normal activity within 10 secs from stimulation by measuring time to peak effect at 32 mA; format: functional
[6] = test system: Rattus norvegicus; assay: Anticonvulsant activity in ip dosed maximal electroshock induced seizure Sprague-Dawley rat model assessed as suppression in hindlimb tonic extension by measuring time to peak effect; format: functional
[7] = biological target: D(2) dopamine receptor (Homo sapiens) (UniProt P14416); assay: Displacement of [3H]methyl-spiperone from human recombinant dopamine D2S receptor expressed in HEK293 cells at 100 uM measured after 60 mins by scintillation counting method relative to control; format: cell-based
[8] = Neurotoxicity in po dosed Sprague-Dawley rat assessed as behavioral change; format: toxicity, organism-based; details: in vivo
[9] = test system: Mus musculus; assay: Anticonvulsant activity in 6-Hz induced seizure mouse model assessed as restoration of normal activity within 10 secs from stimulation at 100 mg/kg, ip at 32 mA measured at […] post dose; format: functional, organism-based
[10] = biological target: T3, Vasoactive intestinal polypeptide receptor 1 (Homo sapiens) (UniProt P32241); assay: Displacement of [125I]VIP from human recombinant VPAC1 receptor expressed in CHO cells at 100 uM measured after 60 mins by scintillation counting method relative to control; format: cell-based
T3 sequence (whole entry): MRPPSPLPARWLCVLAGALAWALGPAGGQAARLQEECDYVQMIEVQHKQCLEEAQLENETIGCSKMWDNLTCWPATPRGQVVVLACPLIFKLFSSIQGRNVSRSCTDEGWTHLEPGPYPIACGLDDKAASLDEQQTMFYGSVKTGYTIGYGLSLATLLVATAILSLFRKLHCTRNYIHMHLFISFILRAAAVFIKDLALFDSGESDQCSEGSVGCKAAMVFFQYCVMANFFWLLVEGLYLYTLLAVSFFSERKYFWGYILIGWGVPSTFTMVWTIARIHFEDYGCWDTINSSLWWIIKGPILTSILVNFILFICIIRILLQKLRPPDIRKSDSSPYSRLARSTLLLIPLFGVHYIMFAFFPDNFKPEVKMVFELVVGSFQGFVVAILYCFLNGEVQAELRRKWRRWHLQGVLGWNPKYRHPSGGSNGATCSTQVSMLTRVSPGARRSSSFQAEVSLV

[11] = organism: Rattus norvegicus; assay: Displacement of [125I]apamin from rat cerebral cortex SKCa channel at 100 uM measured after 60 mins by scintillation counting method relative to control
[12] = biological target: 5-hydroxytryptamine receptor 1B (Rattus norvegicus) (UniProt P28564); assay: Displacement of [125I]CYP from rat cerebral cortex 5HT1B receptor at 100 uM measured after 120 mins by scintillation counting method relative to control
[13] = organism: Rattus norvegicus; assay: Displacement of [3H]TCP from rat cerebral cortex phencyclidine receptor at 100 uM measured after 120 mins by scintillation counting method relative to control
[14] = Protection index, ratio of TD50 for neurotoxicity in ip dosed Sprague-Dawley rat model to ED50 for ip dosed maximal electroshock induced seizure Sprague-Dawley rat model; format: toxicity, organism-based; details: in vivo, read-out: Ratio TD50/ED50
[15] = biological target: Adenosine receptor A2a (Homo sapiens) (UniProt P29274); assay: Displacement of [3H]CGS 21680 from human recombinant adenosine receptor A2A expressed in HEK293 cells at 100 uM measured after 120 mins by scintillation counting method relative to control; format: cell-based
[16] = test system: Mus musculus; assay: Anticonvulsant activity in pentylenetetrazole induced seizure mouse model assessed as no observable episode of clonic convulsion of at least 5 secs at 300 mg/kg, ip measured at 0.5 hrs post dose; format: functional, organism-based
[17] = Protection index, ratio of TD50 for neurotoxicity in ip dosed mouse to ED50 for ip dosed maximal electroshock induced seizure mouse model; format: toxicity, organism-based; details: in vivo, read-out: Ratio TD50/ED50
[18] = test system: Mus musculus; assay: Anticonvulsant activity in ip dosed 6-Hz induced seizure mouse model assessed as restoration of normal activity within 10 secs from stimulation at 32 mA; format: functional

Chain of D(2) dopamine receptor (Homo sapiens) (P14416 whole entry): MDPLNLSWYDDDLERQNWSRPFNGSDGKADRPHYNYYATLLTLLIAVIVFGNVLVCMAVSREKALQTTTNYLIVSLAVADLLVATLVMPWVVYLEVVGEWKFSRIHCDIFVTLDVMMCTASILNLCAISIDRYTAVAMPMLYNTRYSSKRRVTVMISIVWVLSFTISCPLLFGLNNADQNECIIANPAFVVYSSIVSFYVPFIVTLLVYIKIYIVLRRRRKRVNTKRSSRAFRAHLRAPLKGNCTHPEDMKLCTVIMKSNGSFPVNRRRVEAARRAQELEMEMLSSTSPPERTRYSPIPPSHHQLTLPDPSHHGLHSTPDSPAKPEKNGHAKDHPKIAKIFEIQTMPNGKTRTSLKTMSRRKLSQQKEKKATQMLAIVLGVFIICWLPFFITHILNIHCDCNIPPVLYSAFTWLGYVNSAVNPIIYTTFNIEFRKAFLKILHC
Chain of Beta-2 adrenergic receptor (Homo sapiens) (P07550 whole entry, looked up): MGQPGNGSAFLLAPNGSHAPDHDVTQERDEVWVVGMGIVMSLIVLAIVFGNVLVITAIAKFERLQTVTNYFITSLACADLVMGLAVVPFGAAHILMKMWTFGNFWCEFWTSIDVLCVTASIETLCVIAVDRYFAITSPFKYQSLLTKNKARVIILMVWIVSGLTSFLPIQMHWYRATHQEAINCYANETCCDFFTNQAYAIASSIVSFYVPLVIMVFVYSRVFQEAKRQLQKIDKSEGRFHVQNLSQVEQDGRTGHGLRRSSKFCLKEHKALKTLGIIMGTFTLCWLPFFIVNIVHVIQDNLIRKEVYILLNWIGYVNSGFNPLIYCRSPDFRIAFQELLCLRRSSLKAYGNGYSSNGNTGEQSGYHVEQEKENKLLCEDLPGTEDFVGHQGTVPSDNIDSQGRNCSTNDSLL
Chain of Adenosine receptor A2a (Homo sapiens) (P29274 whole entry): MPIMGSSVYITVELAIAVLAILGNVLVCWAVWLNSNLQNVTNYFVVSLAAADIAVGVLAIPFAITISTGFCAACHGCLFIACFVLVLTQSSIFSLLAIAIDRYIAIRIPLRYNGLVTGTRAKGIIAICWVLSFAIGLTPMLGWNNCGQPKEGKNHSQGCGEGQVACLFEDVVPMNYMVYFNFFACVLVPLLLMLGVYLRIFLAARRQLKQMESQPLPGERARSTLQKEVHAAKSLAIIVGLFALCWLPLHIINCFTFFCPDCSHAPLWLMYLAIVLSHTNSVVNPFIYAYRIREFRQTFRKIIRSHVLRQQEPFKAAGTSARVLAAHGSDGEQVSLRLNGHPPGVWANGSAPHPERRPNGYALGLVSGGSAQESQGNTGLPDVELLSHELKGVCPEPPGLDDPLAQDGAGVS
Chain of 5-hydroxytryptamine receptor 1B (Rattus norvegicus) (P28564 whole entry): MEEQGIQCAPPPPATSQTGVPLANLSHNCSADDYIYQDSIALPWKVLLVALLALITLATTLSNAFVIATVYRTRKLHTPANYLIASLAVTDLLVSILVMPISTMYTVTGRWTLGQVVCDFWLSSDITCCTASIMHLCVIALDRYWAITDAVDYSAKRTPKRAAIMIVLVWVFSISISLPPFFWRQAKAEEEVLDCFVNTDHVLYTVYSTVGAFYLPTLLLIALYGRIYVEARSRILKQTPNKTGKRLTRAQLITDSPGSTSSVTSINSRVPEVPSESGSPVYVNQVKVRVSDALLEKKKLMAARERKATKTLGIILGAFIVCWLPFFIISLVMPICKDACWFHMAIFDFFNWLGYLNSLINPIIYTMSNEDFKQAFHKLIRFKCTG

Q: With Cc1ccccc1/C=C/C(=O)N[C@@H](C)CO as the molecule, how does the inhibition [1] read?
A: 51.2%

Q: What about the ED50 [2] of the same molecule?
A: 16.3 mg/kg

Q: What about the inhibition [3] of the same molecule?
A: -8%

Q: And the inhibition [4]?
A: -0.4%

Q: What about the Time [5] of the same molecule?
A: 0.25 h

Q: What about the Time [6] of the same molecule?
A: 0.25 h

Q: And the inhibition [7]?
A: 5%

Q: And the TD50 [8]?
A: > 500 mg/kg

Q: What about the Activity [9] of the same molecule?
A: Active

Q: And the inhibition [10]?
A: 2%

Q: What about the inhibition [11] of the same molecule?
A: -5.8%

Q: And the inhibition [12]?
A: 32.4%

Q: And the inhibition [13]?
A: 7.8%

Q: And the selectivity ratio [14]?
A: 6.3

Q: What about the inhibition [15] of the same molecule?
A: 3.8%

Q: And the Activity [16]?
A: Active

Q: And the selectivity ratio [17]?
A: 3.53

Q: What about the ED50 [18] of the same molecule?
A: 52.6 mg/kg

Q: Which inhibition [1] does the source give for CC(O)CNC(=O)/C=C/c1ccc(Cl)cc1 (centres undefined) here?
A: 76.6%

Q: And the ED50 [2]?
A: 41.9 mg/kg

Q: What about the inhibition [3] of the same molecule?
A: -9%

Q: What about the inhibition [4] of the same molecule?
A: 5.2%

Q: And the Time [5]?
A: 0.5 h

Q: And the Time [6]?
A: 0.5 h

Q: And the inhibition [7]?
A: 8.7%

Q: What about the TD50 [8] of the same molecule?
A: > 500 mg/kg

Q: And the Activity [9]?
A: Active

Q: What about the inhibition [10] of the same molecule?
A: -0.4%

Q: And the inhibition [11]?
A: -2.5%

Q: And the inhibition [12]?
A: -3.2%

Q: What about the inhibition [13] of the same molecule?
A: -5.5%

Q: What about the selectivity ratio [14] of the same molecule?
A: 1.66

Q: What about the inhibition [15] of the same molecule?
A: 25.2%

Q: What about the Activity [16] of the same molecule?
A: Active

Q: And the selectivity ratio [17]?
A: 3.24

Q: What about the ED50 [18] of the same molecule?
A: 42.3 mg/kg

Q: What does the source list for CCC(CO)NC(=O)/C=C/c1ccc(Cl)cc1 (centres undefined)?
A: inhibition [1]: 28.2%; ED50 [2]: 21.2 mg/kg; inhibition [3]: 2.1%; inhibition [4]: 5.8%; Time [5]: 0.25 h; Time [6]: 0.5 h; inhibition [7]: 1.8%; TD50 [8]: 277 mg/kg; Activity [9]: Active; inhibition [10]: 4.8%; inhibition [11]: 2.3%; inhibition [12]: -1.5%; inhibition [13]: -2.2%; selectivity ratio [14]: 3.74; inhibition [15]: 27.3%; Activity [16]: Active; selectivity ratio [17]: 3.65; ED50 [18]: 57.6 mg/kg
